Columns and labels:
[1] = Single administration: feed intake in DIO mice; type: in vivo, Mouse, C57BL/6J-DIO; design: unit not given here
Procedure: (§1) The pharmacological effect of the fusion polypeptides produced and purified in Example 1 above was tested in mice (C57BL/6J, 6-week-old, male, 100 mice; Raonbio).
(§2) In the present example, DI0 mouse model (Mouse, C57BL/6J-DIO, male, 100 mice, 14-week-old (obesity feed feeding for 8 weeks)) in which obesity was induced by feeding a high-fat diet into the C57BL/6J mice for 8 weeks was used.
(§3) The administration of the test substances HT-ID1-GDF15, HT-ID2-GDF15, and HT-ID3-GDF15 and the control substance Semaglutide (Bachem) was conducted from the next day after group separation, and the administration time was performed at 9 AM every day. Subcutaneous administration was conducted for all the control substance and test substances. For the administration route of the control substance and test substances, subcutaneous administration was selected depending on the clinically scheduled administration route.
(§4) For all the control substance and test substances, the amount of the administration solution was set to 5 mL/kg and the administration liquid by individual was calculated on the basis of the recently measured body weight and it was administered by subcutaneous injection once on the start day of the test using a disposable syringe (1 mL). The test substances were administered only once. For comparison, the control group in which the control substance Semaglutide was administered was prepared, and the comparison group in which Semaglutide was administered was administered once a day, and all the administration was progressed from 9 AM.
In addition, after administering the test substances into mice, the daily feed intake was measured, and the feeding amount was measured using an electronic scale for each breeding box, and the remaining amount was measured to calculate the daily feed intake. In case of an individual that gnawed heavily on heed, it was excluded from the measurement.
(§5) All the experimental results obtained in the present example were expressed as mean±standard error and tested using Prism5 (version 5.01). One-way analysis of variance (ANOVA) was performed on all data, and when significance was observed, Dunnett's test was performed to find out the test groups with a significant difference from the control group (significance level: two-sided 5% and 1%, 0.1%).

[2] = Single administration: body weight change in DIO mice; type: in vivo, Mouse, C57BL/6J-DIO; details: single s.c. injection, mean
Procedure: as §1, §2, §3, §4
As for the observation, measurement and test schedule for the test groups, the administration start date was set to Day 0, and 7 days from the administration start date were set to one week of administration.
The body weight of each mouse was measured on the day of the start of administration of the test substances (before administration), and thereafter, the body weight was measured every day (measured up to 9 days), and the amount of the administration solution of the test substances was determined on the basis of the most recently measured body weight.
as §5

HT-ID3-GDF15: Fusion polypeptide: His-Tag, TEV cleavage site, three IgD hinges, GS linker, GDF15 (SEQ ID NO: 3)
Feed intake, Mean ([1]; Day 0, 10 nmol/kg Single Inj.): 3.2
Feed intake, Mean ([1]; Day 1, 10 nmol/kg Single Inj.): 2.0
Feed intake, Mean ([1]; Day 2, 10 nmol/kg Single Inj.): 2.5
Feed intake, Mean ([1]; Day 3, 10 nmol/kg Single Inj.): 2.3
Feed intake, Mean ([1]; Day 4, 10 nmol/kg Single Inj.): 2.3
Feed intake, Mean ([1]; Day 5, 10 nmol/kg Single Inj.): 2.7
Feed intake, Mean ([1]; Day 6, 10 nmol/kg Single Inj.): 2.8
Feed intake, Mean ([1]; Day 7, 10 nmol/kg Single Inj.): 3.3
Feed intake, Mean ([1]; Day 8, 10 nmol/kg Single Inj.): 3.3
Feed intake, Mean ([1]; Day 9, 10 nmol/kg Single Inj.): 3.6
Body Weight (Group, % of initial) ([2]; Day 0, 10 nmol/kg): 100 % of initial
Body Weight (Group, % of initial) ([2]; Day 1, 10 nmol/kg): 98 % of initial
Body Weight (Group, % of initial) ([2]; Day 2, 10 nmol/kg): 97 % of initial
Body Weight (Group, % of initial) ([2]; Day 3, 10 nmol/kg): 96 % of initial
Body Weight (Group, % of initial) ([2]; Day 4, 10 nmol/kg): 95 % of initial
Body Weight (Group, % of initial) ([2]; Day 5, 10 nmol/kg): 94 % of initial
Body Weight (Group, % of initial) ([2]; Day 6, 10 nmol/kg): 95 % of initial
Body Weight (Group, % of initial) ([2]; Day 7, 10 nmol/kg): 95 % of initial
Body Weight (Group, % of initial) ([2]; Day 8, 10 nmol/kg): 95 % of initial
Body Weight (Group, % of initial) ([2]; Day 9, 10 nmol/kg): 96 % of initial

Source: patent US20230133672A1, “FUSION POLYPEPTIDE COMPRISING GDF15 AND POLYPEPTIDE REGION CAPABLE OF O-GLYCOSYLATION” (LG CHEM, LTD., priority 2019, published 2023)
